Measured values from patent US20140120087A1, “TRIAZOLOPYRIDINES” (BAYER INTELLECTUAL PROPERTY GMBH, priority 2011, published 2014).

Key:
[1] = target: T1, Mps-1 kinase (Homo sapiens, UniProt P33981); assay: Mps-1 kinase assay with 2 mM ATP (TR-FRET)
T1 sequence (P33981 1-857): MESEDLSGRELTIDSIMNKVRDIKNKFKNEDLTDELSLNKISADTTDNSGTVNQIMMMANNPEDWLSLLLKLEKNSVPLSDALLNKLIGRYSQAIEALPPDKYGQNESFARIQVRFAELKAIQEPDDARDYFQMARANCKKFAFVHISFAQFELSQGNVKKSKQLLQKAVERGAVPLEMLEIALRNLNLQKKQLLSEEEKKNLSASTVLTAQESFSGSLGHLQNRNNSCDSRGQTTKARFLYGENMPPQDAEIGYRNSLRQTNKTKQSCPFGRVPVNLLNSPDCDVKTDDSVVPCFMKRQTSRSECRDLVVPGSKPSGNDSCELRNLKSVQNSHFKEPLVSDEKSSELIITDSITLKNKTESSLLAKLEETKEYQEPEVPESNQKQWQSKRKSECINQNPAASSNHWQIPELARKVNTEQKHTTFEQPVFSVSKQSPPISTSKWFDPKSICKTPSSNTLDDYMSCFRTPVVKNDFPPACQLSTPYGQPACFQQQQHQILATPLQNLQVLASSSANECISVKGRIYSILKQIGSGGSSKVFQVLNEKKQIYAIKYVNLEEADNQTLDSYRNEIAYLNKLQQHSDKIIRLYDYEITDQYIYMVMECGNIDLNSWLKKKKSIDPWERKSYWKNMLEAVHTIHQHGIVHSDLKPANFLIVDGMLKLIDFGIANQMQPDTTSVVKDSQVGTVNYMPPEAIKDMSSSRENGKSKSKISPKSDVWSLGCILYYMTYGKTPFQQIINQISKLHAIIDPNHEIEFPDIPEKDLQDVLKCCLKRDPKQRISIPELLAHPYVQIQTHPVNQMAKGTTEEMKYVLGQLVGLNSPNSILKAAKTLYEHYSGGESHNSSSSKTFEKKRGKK

[2] = target: T1, Mps-1 kinase; assay: Mps-1 kinase assay with 10 μM ATP (TR-FRET)

SMILES | IC50 [1] | IC50 [2]
COc1cc(C(=O)N(C)CCN(C)C)ccc1Nc1nc2ccc(-c3ccc(C(=O)NCc4ccc(F)cc4)cc3)cn2n1 [Example 12.49, N-[2-(dimethylamino)ethyl]-4-[(6-{4-[(4-fluorobenzyl)-carbamoyl]phenyl}[1,2,4]triazolo [1,5-a]pyridin-2-yl)-amino]-3-methoxy-N-methylbenzamide] | 3.4 nM | ≤ 1 nM
COc1cc(C(=O)NCCCF)ccc1Nc1nc2ccc(-c3ccc(C(=O)NCc4ccc(F)cc4)cc3)cn2n1 [Example 12.50, 4-[(6-{4-[(4-fluorobenzyl)-carbamoyl]phenyl}[1,2,4]triazolo [1,5-a]pyridin-2-yl)-amino]-N-(3-fluoropropyl)-3-methoxybenzamide] | 3.1 nM | ≤ 1 nM
CCN(Cc1ccc(Nc2nc3ccc(-c4ccc(C(=O)NCc5ccc(F)cc5)cc4)cn3n2)c(OC)c1)C(C)(C)CO [Example 12.53, 4-{2-[(4-{[ethyl(1-hydroxy-2-methylpropan-2-yl)amino]-methyl}-2-methoxyphenyl)-amino][1,2,4]triazolo[1,5-a]pyridin-6-yl}-N-(4-fluoro-benzyl)benzamide] | 6.9 nM | ≤ 1 nM
CCOc1cc(C(=O)NCCN(C)C)ccc1Nc1nc2ccc(-c3ccc(C(=O)NCc4ccc(F)cc4)cc3)cn2n1 [Example 12.55, N-[2-(dimethylamino)ethyl]-3-ethoxy-4-[(6-{4-[(4-fluoro-benzyl)carbamoyl]phenyl}-[1,2,4]triazolo[1,5-a]pyridin-2-yl)amino]benzamide] | ≤ 1 nM | ≤ 1 nM
CCOc1cc(C(=O)N(C)CC)ccc1Nc1nc2ccc(-c3ccc(C(=O)NCc4ccc(F)cc4)cc3)cn2n1 [Example 12.56, 3-ethoxy-N-ethyl-4-[(6-{4-[(4-fluorobenzyl)carbamoyl]phenyl}[1,2,4]triazolo[1,5-a]pyridin-2-yl)amino]-N-methylbenzamide] | ≤ 1 nM | ≤ 1 nM
CCOc1cc(C(=O)NCCF)ccc1Nc1nc2ccc(-c3ccc(C(=O)NCc4ccc(F)cc4)cc3)cn2n1 [Example 12.57, 3-ethoxy-4-[(6-{4-[(4-fluoro-benzyl)carbamoyl]phenyl}-[1,2,4]triazolo[1,5-a]pyridin 2-yl)amino]-N-(2-fluoroethyl)benzamide] | ≤ 1 nM | ≤ 1 nM
CN(C)CCNC(=O)c1ccc(Nc2nc3ccc(-c4ccc(C(=O)NCc5ccc(F)cc5)cc4)cn3n2)c(OCC(F)(F)F)c1 [Example 12.58, N-[2-(dimethylamino)ethyl]-4-[(6-{4-[(4-fluorobenzyl)-carbamoyl]phenyl}[1,2,4]triazolo [1,5-a]pyridin-2-yl)-amino]-3-(2,2,2-trifluoro-ethoxy)benzamide] | ≤ 1 nM | ≤ 1 nM
O=C(NCCF)c1ccc(Nc2nc3ccc(-c4ccc(C(=O)NCc5ccc(F)cc5)cc4)cn3n2)c(OCC(F)(F)F)c1 [Example 12.59, 4-[(6-{4-[(4-fluorobenzyl)-carbamoyl]phenyl}[1,2,4]triazolo [1,5-a]pyridin-2-yl)-amino]-N-(2-fluoroethyl)-3-(2,2,2-trifluoroethoxy)-benzamide] | ≤ 1 nM | ≤ 1 nM
CCNC(=O)c1ccc(Nc2nc3ccc(-c4ccc(C(=O)NCc5ccc(F)cc5)cc4)cn3n2)c(C)c1 [Example 12.64, N-ethyl-4-[(6-{4-[(4-fluoro-benzyl)carbamoyl]phenyl}-[1,2,4]triazolo[1,5-a]pyridin-2-yl)amino]-3-methyl-benzamide] | 1.6 nM | ≤ 1 nM
Cc1cc(C(=O)NCC(F)(F)F)ccc1Nc1nc2ccc(-c3ccc(C(=O)NCc4ccc(F)cc4)cc3)cn2n1 [Example 12.66, 4-[(6-{4-[(4-fluorobenzyl)-carbamoyl]phenyl}[1,2,4]triazolo [1,5-a]pyridin-2-yl)-amino]-3-methyl-N-(2,2,2-trifluoroethyl)benzamide] | 2 nM | ≤ 1 nM
Cc1cc(C(=O)NCCF)ccc1Nc1nc2ccc(-c3ccc(C(=O)NCc4ccc(F)cc4)cc3)cn2n1 [Example 12.67, 4-[(6-{4-[(4-fluorobenzyl)-carbamoyl]phenyl}[1,2,4]triazolo [1,5-a]pyridin-2-yl)-amino]-N-(2-fluoroethyl)-3-methylbenzamide] | 5 nM | ≤ 1 nM
COc1cc(C(=O)NCC(F)(F)F)ccc1Nc1nc2ccc(-c3ccc(C(=O)NCc4ccc(Cl)cc4)cc3)cn2n1 [Example 12.72, 4-[(6-{4-[(4-chlorobenzyl)-carbamoyl]phenyl}[1,2,4]triazolo [1,5-a]pyridin-2-yl)-amino]-3-methoxy-N-(2,2,2-trifluoroethyl)benzamide] | 16 nM | ≤ 1 nM
Cc1cc(S(C)(=O)=O)ccc1Nc1nc2ccc(-c3ccc(C(=O)NCc4ccc(Cl)cc4)cc3)cn2n1 [Example 12.74, N-(4-chlorobenzyl)-4-(2-{[2-methyl-4-(methylsulfonyl)-phenyl]amino}[1,2,4]triazolo [1,5-a]pyridin-6-yl)-benzamide] | 16 nM | ≤ 1 nM

Other lines, results leading:

IC50 [1] | IC50 [2] | SMILES
14 nM | ≤ 1 nM | COc1cc(S(=O)(=O)NC(C)(C)C)ccc1Nc1nc2ccc(-c3ccc(C(=O)NCc4ccc(F)cc4)cc3)cn2n1 [Example 12.52, 4-(2-{[4-(tert-butyl-sulfamoyl)-2-methoxy-phenyl]amino}[1,2,4]-triazolo[1,5-a]pyridin-6-yl)-N-(4-fluorobenzyl)-benzamide]
1.1 nM | ≤ 1 nM | COc1cc(C(C)(C)O)ccc1Nc1nc2ccc(-c3ccc(C(=O)NCc4ccc(F)cc4)cc3)cn2n1 [Example 12.54, N-(4-fluorobenzyl)-4-(2-{[4-(2-hydroxypropan-2-yl)-2-methoxyphenyl]amino}-[1,2,4]triazolo[1,5-a]pyridin-6-yl)benzamide]
5 nM | ≤ 1 nM | NC(=O)c1ccc(Nc2nc3ccc(-c4ccc(C(=O)NCc5ccc(F)cc5)cc4)cn3n2)c(OC(F)(F)F)c1 [Example 12.60, 4-[(6-{4-[(4-fluorobenzyl)-carbamoyl]phenyl}[1,2,4]triazolo [1,5-K]pyridin-2-yl)-amino]-3-(trifluoro-methoxy)benzamide]
6.1 nM | ≤ 1 nM | CCS(=O)(=O)c1ccc(Nc2nc3ccc(-c4ccc(C(=O)NCc5ccc(F)cc5)cc4)cn3n2)c(OC(F)F)c1 [Example 12.61, 4-(2-{[2-(difluoromethoxy)-4-(ethylsulfonyl)phenyl]-amino}[1,2,4]triazolo[1,5-a]pyridin-6-yl)-N-(4-fluorobenzyl)benzamide]
3.5 nM | ≤ 1 nM | CC(C)S(=O)(=O)c1ccc(Nc2nc3ccc(-c4ccc(C(=O)NCc5ccc(F)cc5)cc4)cn3n2)c(OC(F)F)c1 [Example 12.62, 4-(2-{[2-(difluoromethoxy)-4-(propan-2-ylsulfonyl)-phenyl]amino}[1,2,4]-triazolo[1,5-a]pyridin-6-yl)-N-(4-fluorobenzyl)-benzamide]
26 nM | ≤ 1 nM | O=C(NCc1ccc(F)cc1)c1ccc(-c2ccc3nc(Nc4ccc(F)cc4OC(F)F)nn3c2)cc1 [Example 12.63, 4-(2-{[2-(difluoromethoxy)-4-fluorophenyl]amino}-[1,2,4]triazolo[1,5-a]pyridin-6-yl)-N-(4-fluoro-benzyl)benzamide]
≤ 1 nM | ≤ 1 nM | Cc1cc(C(N)=O)ccc1Nc1nc2ccc(-c3ccc(C(=O)NCc4ccc(F)cc4)cc3)cn2n1 [Example 12.65, 4-[(6-{4-[(4-fluorobenzyl)-carbamoyl]phenyl}[1,2,4]triazolo [1,5-a]pyridin-2-yl)-amino]-3-methylbenzamide]
1.9 nM | ≤ 1 nM | Cc1cc(S(C)(=O)=O)ccc1Nc1nc2ccc(-c3ccc(C(=O)NCc4ccc(F)cc4)cc3)cn2n1 [Example 12.68, N-(4-fluorobenzyl)-4-(2-{[2-methyl-4-(methylsulfonyl)-phenyl]amino}[1,2,4]triazolo [1,5-a]pyridin-6-yl)-benzamide]
9.5 nM | ≤ 1 nM | Cc1cc(NS(C)(=O)=O)ccc1Nc1nc2ccc(-c3ccc(C(=O)NCc4ccc(F)cc4)cc3)cn2n1 [Example 12.70, N-(4-fluorobenzyl)-4-[2-({2-methyl-4-[(methylsulfonyl)-amino]phenyl}amino)[1,2,4]triazolo [1,5-a]pyridin-6-yl]-benzamide]
8.8 nM | ≤ 1 nM | COc1ccc(Nc2nc3ccc(-c4ccc(C(=O)NCc5ccc(F)cc5)cc4)cn3n2)c(C)c1 [Example 12.71, N-(4-fluorobenzyl)-4-{2-[(4-methoxy-2-methylphenyl)-amino][1,2,4]triazolo[1,5-a]pyridin-6-yl}benzamide]
16 nM | ≤ 1 nM | COc1cc(S(C)(=O)=O)ccc1Nc1nc2ccc(-c3ccc(C(=O)NCc4ccc(Cl)cc4)cc3)cn2n1 [Example 12.73, N-(4-chlorobenzyl)-4-(2-{[2-methoxy-4-(methylsulfonyl)-phenyl]amino}[1,2,4]triazolo [1,5-a]pyridin-6-yl)-benzamide]
